From PMC4171097, “Severe MgADP Inhibition of Bacillus subtilis F1-ATPase Is Not Due to the Absence of Nucleotide Binding to the Noncatalytic Nucleotide Binding Sites” (PLoS ONE, 2014) come the findings set out here.

The structures appear in SMILES notation.

For this assay, the target named is T1, α3β3γ complex of BF1 (F1-ATPase from Bacillus subtilis) (Bacillus subtilis, UniProt P37808+P37809, P37808:R354W).
T1 construct: gene atpA; recombinant alpha3beta3gamma subcomplex of F1-ATPase (no delta, no epsilon), from plasmid pET21-BF1; with ATP synthase gamma chain
T1 sequence (P37809 whole entry): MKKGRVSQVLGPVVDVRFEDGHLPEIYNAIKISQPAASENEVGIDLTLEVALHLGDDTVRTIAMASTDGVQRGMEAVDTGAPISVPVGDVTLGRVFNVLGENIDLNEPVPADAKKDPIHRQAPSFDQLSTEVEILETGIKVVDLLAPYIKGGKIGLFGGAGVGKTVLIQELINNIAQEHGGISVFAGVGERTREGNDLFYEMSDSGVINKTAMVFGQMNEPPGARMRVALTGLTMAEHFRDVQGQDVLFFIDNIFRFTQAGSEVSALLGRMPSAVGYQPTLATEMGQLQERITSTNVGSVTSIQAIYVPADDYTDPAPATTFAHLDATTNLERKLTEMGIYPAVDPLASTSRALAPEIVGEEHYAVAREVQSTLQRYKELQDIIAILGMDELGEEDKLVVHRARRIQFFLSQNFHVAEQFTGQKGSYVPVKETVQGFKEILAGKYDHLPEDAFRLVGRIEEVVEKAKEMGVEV
T1 sequence (P37810 whole entry, further chain): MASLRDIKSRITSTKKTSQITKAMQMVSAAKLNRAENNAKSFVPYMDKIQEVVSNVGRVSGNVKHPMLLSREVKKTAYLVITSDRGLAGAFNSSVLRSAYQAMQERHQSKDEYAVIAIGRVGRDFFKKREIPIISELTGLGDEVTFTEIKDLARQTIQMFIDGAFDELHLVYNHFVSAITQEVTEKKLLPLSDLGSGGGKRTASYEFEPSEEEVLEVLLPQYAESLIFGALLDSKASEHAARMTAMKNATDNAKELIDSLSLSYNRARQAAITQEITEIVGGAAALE
T1 sequence (P37808 2-502 R354W): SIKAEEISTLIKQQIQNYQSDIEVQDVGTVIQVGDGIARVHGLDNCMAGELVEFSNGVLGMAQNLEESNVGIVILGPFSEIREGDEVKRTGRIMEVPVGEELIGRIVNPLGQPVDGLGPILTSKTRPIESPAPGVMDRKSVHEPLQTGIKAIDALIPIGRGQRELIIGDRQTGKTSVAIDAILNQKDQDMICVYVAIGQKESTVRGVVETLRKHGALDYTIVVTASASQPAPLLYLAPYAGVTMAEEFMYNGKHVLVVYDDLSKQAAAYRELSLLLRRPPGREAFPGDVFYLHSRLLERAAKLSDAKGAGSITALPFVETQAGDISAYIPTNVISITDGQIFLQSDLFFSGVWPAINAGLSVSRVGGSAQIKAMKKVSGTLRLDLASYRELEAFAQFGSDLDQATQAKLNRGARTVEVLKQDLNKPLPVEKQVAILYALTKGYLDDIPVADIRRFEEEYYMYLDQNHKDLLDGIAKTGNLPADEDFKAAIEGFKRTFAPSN
Kind of assay: tryptophan fluorescence quenching titration (ex […] nm, em […] nm), simple binding equation. Particulars: read-out: apparent Kd.

For the compound `Nc1ncnc2c1ncn2[C@@H]1O[C@H](COP(=O)(O)OP(=O)(O)OP(=O)(O)O)[C@@H](O)[C@H]1O` [ATP], the Kd amounted to 34.4 ± 2.9 µM.
